# Measurements taken from paper PMC10974272, “Cytotoxic and Antiproliferative Activity of LASSBio-2208 and the Attempts to Determine Its Drug Metabolism and Pharmacokinetics In Vitro Profile” (Pharmaceuticals, 2024).
# Like-named read-outs stand apart in the source and are kept apart here.
# Assays:
# [1] = tested on: breast cancer cell line (MCF-7); parameters: method as in PMID 37259357; conditions: cited from earlier work
# CCRF-CEM = assay: SRB cell viability/antiproliferative assay, CCRF-CEM; conditions: Homo sapiens, 48 h
# [2] = Non-specific microsome protein binding; type: in vitro ADME; conditions: rat, pH 7.4; liver microsomes 0.5 mg protein/mL, 37 °C, 60 min; read-out: Percentage of ƒu(mic) (unbound fraction in nonspecific microsomal binding)
# Protocol: Once such bonds are formed, the bound fraction would become incapable of being metabolized.
# Liver microsomes were diluted with PBS pH 7.4 to a concentration of 0.5 mg protein/mL and 3 µL at 1 mM of the working test compound and solutions were mixed with 357 µL of liver microsome suspension. After mixing, duplicate 200 µL aliquots were immediately removed, while another microtubule acted as the control sample (T 0 h), and were quenched with 400 µL of cold acetonitrile containing analytical internal standards. The other samples were incubated at 37 °C at 100 rpm, for 60 min with the same subsequent treatment.
# PC-3 = assay: SRB cell viability/antiproliferative assay, PC-3; conditions: for Emax: SRB 48 h, PC-3, maximum effect at maximum concentration used
# MOLT-4 = assay: SRB cell viability/antiproliferative assay, MOLT-4; conditions: Homo sapiens, MOLT-4, 48 h
# [3] = tested on: T lymphoblast cell line (MOLT-4); parameters: method as in PMID 37259357; conditions: cited from earlier work
# [4] = tested on: breast cancer cell line (MCF-7); assay: MTT cell viability assay, MCF-7
# Protocol: (§8) After the incubation time, the plate was centrifuged (Universal centrifuge 320R Hettich, Kirchlengern, Germany) at 440× g, 10 min and 4 °C, then 110 µL of supernatant was removed and 10 µL of MTT solution was added and left to incubate for 3.5 h in the oven at 37 °C and 5% CO2. […] The CC50 was calculated using the GraphPad Prism 9.0 program. Each sample was tested in triplicate in three independent experiments (N3) [32, 33].
# PAMPA—BBB = type: in vitro ADME; parameters: key to Classification BBB: permeable (CNS+); non-permeable (CNS−)
# Protocol: (§1) To obtain information on the permeability potential of LASSBio-2208 on cell membranes, this derivative was tested using the parallel artificial membrane permeability assay (PAMPA) that is used as an in vitro model of passive diffusion and transcellular permeation. In this model, the permeability across two artificial membranes is measured: brain lipid from pig extract in dodecane (called PAMPA—BBB) and L-α soy phosphatidylcholine in dodecane (called PAMPA—TGI).
# (§2) To perform the permeability assay we used a donor plate where the compounds (tests or controls) are diluted in a buffered medium, characterized by the presence of a synthetic membrane of polyvinylidene fluoride (PVDF) impregnated with a lipid solution, forming a barrier through which the compounds migrate through a diffusion process to the lower plate called the receptor.
# (§3) The lipid mixture that impregnates the filter has a different constitution for the permeability tests for the blood–brain barrier (brain lipid from pig extract in dodecane) and gastrointestinal tract (L-α soy phosphatidylcholine in dodecane). In the PAMPA—BBB and PAMPA—GIT assays, the optical density values obtained in the reading at each selected wavelength, for each of the compounds were analysed in comparison with the values of several controls. In the case of the BBB, these values were used to elaborate an equation and determine the permeability coefficient (Pe), using a previously elaborated spreadsheet, and, for the PAMPA—GIT, these values were used to determine the absorbed fraction (Fa%), both using the Excel program. The permeability result for PAMPA—GIT classifies the compounds according to the percentage of absorbed fraction (Fa%), as follows: high intestinal permeability (70–100%), medium permeability (30–69%) or low permeability (0–29%), and the samples were diluted from a stock solution of 10 mM. The PAMPA—BBB model classifies the compounds only as follows: permeable (CNS+) or non-permeable (CNS−) and the assays were made from a stock solution of 1 mg for each compound [25, 40, 41, 42].
# [5] = tested on: human leukaemia cell line (CCRF-CEM); assay: MTT cell viability assay, CCRF-CEM
# Protocol: as §8
# MCF-7 = assay: SRB cell viability/antiproliferative assay, MCF-7; conditions: Homo sapiens, MCF7, 48 h
# [6] = tested on: human prostate cancer cell line (PC-3); assay: MTT cell viability assay, PC-3; parameters: Emax: dose or concentration left out as unconfirmed
# Protocol: as §8
# [7] = tested on: human prostate cancer cell line (PC-3); parameters: method as in PMID 37259357; conditions: cited from earlier work
# [8] = tested on: T lymphoblast cell line (MOLT-4); assay: MTT cell viability assay, MOLT-4; conditions: Homo sapiens
# Protocol: as §8
# [9] = tested on: human leukaemia cell line (CCRF-CEM); parameters: method as in PMID 37259357; conditions: cited from earlier work
# PAMPA—GIT = type: in vitro ADME; conditions: for Papp: PAMPA, read-out: Pe. Exp. GIT; for Classification GIT: by fraction absorbed
# Protocol: as §1, §2, §3
# [10] = tested on: human peripheral blood mononuclear cells (hPBMC); assay: PBMC viability assay by MTT; type: cell-based; conditions: MTT 48 h, human PBMC; maximum cytotoxic response at 100 µM
# Protocol: (§4) The SI indicates how selective a compound is for a tumour cell line compared with a non-tumour cell line.
# (§5) Human peripheral blood mononuclear cells (PBMCs) were used to determine the selectivity index (SI) and were obtained from healthy volunteers under a protocol approved by the Ethics Committee CAAE: 38257914.7.0000.5259. Immortalized cells were also obtained from the Rio de Janeiro Cell Bank (BCRJ).
# (§6) First, 8 mL of blood from each healthy donor (3 people) was collected in a tube with EDTA in a 1:20 ratio to prevent the blood from clotting. In a 15 mL Falcon tube containing 4 mL of Ficoll-Paque, the 8 mL of blood collected was slowly added, letting it fall down the walls of the tube. It was centrifuged (Universal Centrifuge 320R Hettich) for 40 min at 750× g at 21 °C with acceleration 1 and brake 0. After centrifugation, in order to extract the ring of mononuclear cells, the supernatant above it was first carefully discarded so as not to disturb the ring. The ring was then slowly removed and placed in another 15 mL Falcon tube to which pure RPMI-1640 medium was added in a 1:1 ratio and centrifuged for 10 min at 580× g and 21 °C with acceleration 8 and brake 9 [34, 35].
# (§7) The supernatant was discarded, and the pellet was resuspended in 1 mL of RPMI-1640 medium supplemented with 10% SBF and 1% antibiotic. An amount of 20 µL of cells were taken from the mixture and added to 380 µL of trypan blue dye for counting in the Neubauer chamber. Considering that 80% of PBMCs are lymphocytes and the rest are monocytes, the cells were plated with the aim of having 10^5 cell/well.
# [11] = PBMC viability assay by MTT; type: cell-based, human; conditions: MTT 48 h, non-tumour human PBMC
# Protocol: as §4, §5, §6, §7
smiles,measurement,setting,value
"CN(C)C1CCN(C(=O)c2ccc(NC(=O)Nc3ccc(-c4nc(N5CCOCC5)nc(N5CCOCC5)n4)cc3)cc2)CC1 [Gedatolisib, gedatolisib]",CC50,[1],0.07 µM
same,CC50,CCRF-CEM,0.78 µM
same,Emax,CCRF-CEM,66.2%
same,"fraction unbound at 60 min, 8.3 µM",[2],0.503
same,CC50,"PC-3; Homo sapiens, PC-3, 48 h",6.16 µM
same,Emax,"PC-3; Homo sapiens, PC-3, 48 h",> 50%
same,CC50,MOLT-4,3.68 µM
same,Emax,MOLT-4,69.2%
same,CC50,[3],0.02 µM
same,CC50,"[4]; Homo sapiens, MCF7, 24 h",5.04 µM
same,Emax,"[4]; Homo sapiens, MCF7, 24 h",79.9%
same,CC50,"[4]; Homo sapiens, MCF7, 48 h",0.21 µM
same,Emax,"[4]; Homo sapiens, MCF7, 48 h",96.8%
same,CC50,"[4]; Homo sapiens, MCF7, 72 h",0.06 µM
same,Classification BBB,PAMPA—BBB,Insoluble
same,Pe. Exp. BBB,PAMPA—BBB,Insoluble
same,Pe. Exp. BBB,PAMPA—BBB; listed as gedatolisib,insoluble
same,CC50,[5]; 24 h,0.31 µM
same,Emax,[5]; 24 h,98.6%
same,CC50,[5]; 48 h,0.085 µM
same,Emax,[5]; 48 h,99.5%
same,CC50,[5]; 72 h,0.09 µM
same,Emax,[5]; 72 h,100%
same,CC50,MCF-7,0.03 µM
same,Emax,MCF-7,95.7%
same,CC50,"[6]; Homo sapiens, 24 h",> 100 µM
same,Emax,"[6]; Homo sapiens, 24 h",48%
same,CC50,"[6]; Homo sapiens, 48 h",5.05 µM
same,Emax,"[6]; Homo sapiens, 48 h",60.5%
same,CC50,"[6]; Homo sapiens, 72 h",0.86 µM
same,Emax,"[6]; Homo sapiens, 72 h",81.1%
same,CC50,[7],0.54 µM
same,CC50,"[8]; MOLT-4, 24 h",0.35 µM
same,Emax,"[8]; MOLT-4, 24 h",97.2%
same,CC50,"[8]; MOLT-4, 48 h",0.08 µM
same,Emax,"[8]; MOLT-4, 48 h",99.3%
same,CC50,"[8]; MOLT-4, 72 h",0.07 µM
same,CC50,[9],0.03 µM
same,Fraction Absorbed,PAMPA—GIT,48.4%
same,Papp,PAMPA—GIT,1.74 ×10⁻⁶ cm/s
"CN1CCc2c(c3ccccc3n2Cc2ccc(C(=O)NO)cc2)C1 [Tubastatin A, tubastatin A]",CC50,CCRF-CEM,9.69 µM
same,Emax,CCRF-CEM,69.5%
same,"fraction unbound at 60 min, 8.3 µM",[2],0.131
same,CC50,"PC-3; Homo sapiens, PC-3, 48 h",> 100 µM
same,Emax,"PC-3; Homo sapiens, PC-3, 48 h",< 35%
same,Emax,PC-3,39.3%
same,CC50,MOLT-4,10.5 µM
same,Emax,MOLT-4,54.4%
same,CC50,"[4]; Homo sapiens, MCF7, 24 h",> 100 µM
same,Emax,"[4]; Homo sapiens, MCF7, 24 h",40.1%
same,CC50,"[4]; Homo sapiens, MCF7, 48 h",> 100 µM
same,Emax,"[4]; Homo sapiens, MCF7, 48 h",48.2%
same,CC50,"[4]; Homo sapiens, MCF7, 72 h",83.6 µM
same,Emax,"[4]; Homo sapiens, MCF7, 72 h",56.8%
same,CC50,"[4]; MTT 24 h, MCF-7",did not show any cytotoxic activity
same,Classification BBB,PAMPA—BBB,CNS+
same,Papp,PAMPA—BBB; read-out: Pe. Exp. BBB,5.54 ×10⁻⁶ cm/s
same,CC50,[5]; 24 h,12.5 µM
same,Emax,[5]; 24 h,95.8%
same,CC50,[5]; 48 h,9.38 µM
same,Emax,[5]; 48 h,99.1%
same,CC50,[5]; 72 h,7.11 µM
same,Emax,[5]; 72 h,99.3%
same,CC50,MCF-7,66 µM
same,Emax,"MCF-7; SRB 48 h, MCF-7, maximum effect at maximum concentration used",> 70%
same,CC50,"[6]; Homo sapiens, 24 h",> 100 µM
same,Emax,"[6]; Homo sapiens, 24 h",41.8%
same,CC50,"[6]; Homo sapiens, 48 h",65.9 µM
same,Emax,"[6]; Homo sapiens, 48 h",67.8%
same,CC50,"[6]; Homo sapiens, 72 h",34.9 µM
same,Emax,"[6]; Homo sapiens, 72 h",83.6%
same,CC50,"[6]; MTT 24 h, PC-3",did not show any cytotoxic activity
same,Emax,"[8]; MOLT-4, 24 h",94.6%
same,CC50,"[8]; MOLT-4, 48 h",7.5 µM
same,Emax,"[8]; MOLT-4, 48 h",98.2%
same,Emax,"[8]; MOLT-4, 72 h",98.7%
same,Fraction Absorbed,PAMPA—GIT,52.93%
same,Papp,PAMPA—GIT,1.98 ×10⁻⁶ cm/s
same,Classification GIT,PAMPA—GIT,Medium (medium permeability (30–69%))
same,Classification GIT,PAMPA—GIT; listed as tubastatin A,medium
same,Fraction Absorbed,PAMPA—GIT; listed as tubastatin A,52.9%
same,Emax,[10],58.2%
same,CC50 at 48 h,[11],85.7 µM
